Values after ≈ are worked out from the molar mass of the structure shown.
Assays:
Assay in all cases: MIC broth microdilution, standard strain
Assay type in all cases: cell-based
S. aureus ATCC 25923 = settings: Staphylococcus aureus, ATCC25923; S. aureus ATCC 25923, standard strain, 19 h at 35 °C; read-out: minimal inhibitory concentration (MIC)
Experimental: (§1) All synthesized compounds were tested in vitro against a set of bacteria, including representative standard Gram-positive and Gram-negative rods. Compounds were screened for their minimal inhibitory concentrations (MICs). […] These three compounds were also found to be good inhibitors of the growth of Gram-negative rods: […] The antimicrobial assays were conducted using reference strains of bacteria derived from international microbe collections: American Type Culture Collection (ATCC) and National Collection of Type Culture (NCTC). The following standard strains of bacteria were used: Gram-positive-Staphylococcus aureus NCTC 4163, Staphylococcus aureus ATCC 25923, Staphylococcus aureus ATCC 6538, Staphylococcus aureus ATCC 29213, Staphylococcus epidermidis ATCC 12228, Staphylococcus epidermidis ATCC 35984, Gram-negative: Escherichia coli ATCC 25922, Pseudomonas aeruginosa ATCC 15442. Clinical strains of bacteria used in this study: Gram-positive: Staphylococcus epidermidis 5253, Staphylococcus epidermidis 4243, Staphylococcus aureus […], Staphylococcus aureus […] and Gram-negative: Escherichia coli 520, Escherichia coli 600, Klebsiella pneumoniae 510 and Pseudomonas aeruginosa 659 were obtained from the collection of the Department of Pharmaceutical Microbiology, Medical University of Warsaw, Poland and they were isolated from different biological materials taken from the patients hospitalized in the Warsaw Medical University hospitals. Antimicrobial activity was examined by the minimal inhibitory concentration (MIC) method under standard procedures provided by CLSI with some modifications. MIC was determined by the two-fold serial broth microdilution method in 96-well microtitration plates using Mueller-Hinton II broth medium (Becton Dickinson, Franklin Lakes, NJ, USA). The final inoculum of all studied bacteria was 10^6 CFU/mL (colony forming unit per milliliter). The stock solution of tested compounds was prepared in dimethyl sulfoxide (DMSO) and diluted to a maximum of 1% of solvent content with a sterile medium.

S. aureus NCTC 4163 = settings: Staphylococcus aureus, NCTC4163; S. aureus NCTC 4163, standard strain, 19 h at 35 °C; read-out: minimal inhibitory concentration (MIC)
Experimental: as §1

P. aeruginosa ATCC 15442 = settings: Pseudomonas aeruginosa, ATCC15442; P. aeruginosa ATCC 15442, standard strain, 19 h at 35 °C; read-out: minimal inhibitory concentration (MIC)
Experimental: as §1

E. coli ATCC 25922 = settings: Escherichia coli, ATCC25922; E. coli ATCC 25922, standard strain, 19 h at 35 °C; read-out: minimal inhibitory concentration (MIC)
Experimental: as §1

[1] = system: S. epidermidis ATCC 12228; settings: Staphylococcus epidermidis, ATCC12228; S. epidermidis ATCC 12228, standard strain, 19 h at 35 °C; read-out: minimal inhibitory concentration (MIC)
Experimental: (§2) All synthesized compounds were tested in vitro against a set of bacteria, including representative standard Gram-positive and Gram-negative rods. Compounds were screened for their minimal inhibitory concentrations (MICs). […] The antimicrobial assays were conducted using reference strains of bacteria derived from international microbe collections: American Type Culture Collection (ATCC) and National Collection of Type Culture (NCTC). The following standard strains of bacteria were used: Gram-positive-Staphylococcus aureus NCTC 4163, Staphylococcus aureus ATCC 25923, Staphylococcus aureus ATCC 6538, Staphylococcus aureus ATCC 29213, Staphylococcus epidermidis ATCC 12228, Staphylococcus epidermidis ATCC 35984, Gram-negative: Escherichia coli ATCC 25922, Pseudomonas aeruginosa ATCC 15442. Clinical strains of bacteria used in this study: Gram-positive: Staphylococcus epidermidis 5253, Staphylococcus epidermidis 4243, Staphylococcus aureus […], Staphylococcus aureus […] and Gram-negative: Escherichia coli 520, Escherichia coli 600, Klebsiella pneumoniae 510 and Pseudomonas aeruginosa 659 were obtained from the collection of the Department of Pharmaceutical Microbiology, Medical University of Warsaw, Poland and they were isolated from different biological materials taken from the patients hospitalized in the Warsaw Medical University hospitals. […] MIC was determined by the two-fold serial broth microdilution method in 96-well microtitration plates using Mueller-Hinton II broth medium (Becton Dickinson, Franklin Lakes, NJ, USA). The final inoculum of all studied bacteria was 10^6 CFU/mL (colony forming unit per milliliter). The stock solution of tested compounds was prepared in dimethyl sulfoxide (DMSO) and diluted to a maximum of 1% of solvent content with a sterile medium.

S. aureus ATCC 29213 = settings: Staphylococcus aureus, ATCC29213; S. aureus ATCC 29213, standard strain, 19 h at 35 °C; read-out: minimal inhibitory concentration (MIC)
Experimental: as §2

S. aureus ATCC 6538 = settings: Staphylococcus aureus, ATCC6538; S. aureus ATCC 6538, standard strain, 19 h at 35 °C; read-out: minimal inhibitory concentration (MIC)
Experimental: as §2

[2] = system: S. epidermidis ATCC 35984; settings: Staphylococcus epidermidis, ATCC35984; S. epidermidis ATCC 35984, standard strain, 19 h at 35 °C; read-out: minimal inhibitory concentration (MIC)
Experimental: as §2

MIC (S. aureus ATCC 25923) [µg/mL]	MIC (S. aureus NCTC 4163) [µg/mL]	MIC (P. aeruginosa ATCC 15442) [µg/mL]	MIC (E. coli ATCC 25922) [µg/mL]	MIC [1] [µg/mL]	MIC (S. aureus ATCC 29213) [µg/mL]	MIC (S. aureus ATCC 6538) [µg/mL]	MIC [2] [µg/mL]	Structure (SMILES)
8 (≈ 18.9 µM)	16 (≈ 37.8 µM)	> 256	256 (≈ 605 µM)	32 (≈ 75.6 µM)	16 (≈ 37.8 µM)	32 (≈ 75.6 µM)	32 (≈ 75.6 µM)	CC1=C(C)C2(C)CC1(C)C1C(=O)N(Nc3nnnn3-c3ccc([N+](=O)[O-])cc3)C(=O)C12 (stereo not shown) [Compound 4, 4,5,6,7-Tetramethyl-2-((1-(4-nitrophenyl)-1H-tetrazol-5-yl)amino)-3a,4,7,7a-tetrahydro-1H-4,7-methanoisoindole-1,3(2H)-dione]
2 (≈ 5.28 µM)	2 (≈ 5.28 µM)	> 256	8 (≈ 21.1 µM)	16 (≈ 42.3 µM)	4 (≈ 10.6 µM)	2 (≈ 5.28 µM)	4 (≈ 10.6 µM)	CC1=C(C)C2(C)CC1(C)C1C(=O)N(Nc3nnnn3-c3ccccc3)C(=O)C12 (stereo not shown) [Compound 6, 4,5,6,7-Tetramethyl-2-((1-phenyl-1H-tetrazol-5-yl)amino)-3a,4,7,7a-tetrahydro-1H-4,7-methanoisoindole-1,3(2H)-dione]
8 (≈ 18.3 µM)	8 (≈ 18.3 µM)	> 256	> 256	16 (≈ 36.6 µM)	8 (≈ 18.3 µM)	8 (≈ 18.3 µM)	16 (≈ 36.6 µM)	CC(C)C12C=CC(C)(CC1)C1C(=O)N(Nc3nnnn3-c3ccc([N+](=O)[O-])cc3)C(=O)C12 (stereo not shown) [Compound 8, 4-Isopropyl-7-methyl-2-((1-(4-nitrophenyl)-1H-tetrazol-5-yl)amino)-3a,4,7,7a-tetrahydro-1H-4,7-ethanoisoindole-1,3(2H)-dione]
64 (≈ 136 µM)	64 (≈ 136 µM)	> 256	128 (≈ 272 µM)	128 (≈ 272 µM)	64 (≈ 136 µM)	64 (≈ 136 µM)	64 (≈ 136 µM)	CC(C)C12C=CC(C)(CC1)C1C(=O)N(Nc3nnnn3-c3ccccc3Br)C(=O)C12 (stereo not shown) [Compound 9, 2-((1-(2-Bromophenyl)-1H-tetrazol-5-yl)amino)-4-isopropyl-7-methyl-3a,4,7,7a-tetrahydro-1H-4,7-ethanoisoindole-1,3(2H)-dione]
4 (≈ 9.84 µM)	4 (≈ 9.84 µM)	> 256	16 (≈ 39.4 µM)	32 (≈ 78.7 µM)	8 (≈ 19.7 µM)	4 (≈ 9.84 µM)	8 (≈ 19.7 µM)	Cc1ccc(-n2nnnc2NN2C(=O)C3C(C2=O)C2(C(C)C)C=CC3(C)CC2)cc1 (stereo not shown) [Compound 10, 4-Isopropyl-7-methyl-2-((1-(p-tolyl)-1H-tetrazol-5-yl)amino)-3a,4,7,7a-tetrahydro-1H-4,7-ethanoisoindole-1,3(2H)-dione]

Structure (SMILES)	MIC (S. aureus ATCC 25923) [µg/mL]	MIC (S. aureus NCTC 4163) [µg/mL]	MIC (P. aeruginosa ATCC 15442) [µg/mL]	MIC (E. coli ATCC 25922) [µg/mL]	MIC [1] [µg/mL]	MIC (S. aureus ATCC 29213) [µg/mL]	MIC (S. aureus ATCC 6538) [µg/mL]	MIC [2] [µg/mL]
CC1=C(C)C2(C)CC1(C)C1C(=O)N(Nc3nnnn3-c3cccc(C(F)(F)F)c3)C(=O)C12 (stereo not shown) [Compound 1, 4,5,6,7-Tetramethyl-2-((1-(3-(trifluoromethyl)phenyl)-1H-tetrazol-5-yl)amino)-3a,4,7,7a-tetrahydro-1H-4,7-methanoisoindole-1,3(2H)-dione]	0.2 (≈ 0.448 µM)	0.2 (≈ 0.448 µM)	12.8 (≈ 28.7 µM)	0.4 (≈ 0.896 µM)	3.2 (≈ 7.17 µM)	0.2 (≈ 0.448 µM)	0.2 (≈ 0.448 µM)	0.2 (≈ 0.448 µM)
CC1=C(C)C2(C)CC1(C)C1C(=O)N(Nc3nnnn3-c3ccccc3Cl)C(=O)C12 (stereo not shown) [Compound 2, 2-((1-(2-Chlorophenyl)-1H-tetrazol-5-yl)amino)-4,5,6,7-tetramethyl-3a,4,7,7a-tetrahydro-1H-4,7-methanoisoindole-1,3(2H)-dione]	0.4 (≈ 0.969 µM)	0.4 (≈ 0.969 µM)	25.6 (≈ 62 µM)	1.6 (≈ 3.88 µM)	3.2 (≈ 7.75 µM)	0.8 (≈ 1.94 µM)	0.4 (≈ 0.969 µM)	0.4 (≈ 0.969 µM)
CC1=C(C)C2(C)CC1(C)C1C(=O)N(Nc3nnnn3-c3ccccc3Br)C(=O)C12 (stereo not shown) [Compound 3, 2-((1-(2-Bromophenyl)-1H-tetrazol-5-yl)amino)-4,5,6,7-tetramethyl-3a,4,7,7a-tetrahydro-1H-4,7-methanoisoindole-1,3(2H)-dione]	0.1 (≈ 0.219 µM)	0.1 (≈ 0.219 µM)	16 (≈ 35 µM)	0.4 (≈ 0.875 µM)	2 (≈ 4.37 µM)	0.2 (≈ 0.437 µM)	0.2 (≈ 0.437 µM)	0.2 (≈ 0.437 µM)
